Literature values as cited in paper PMC4306510 (Bioconjugate Chemistry, 2014).

Settings: in 0.1 M aqueous NaOH

- quantum yield of the standard: 95%
Structure (SMILES): O=C(O)c1ccc2c(c1)C(=O)OC21c2ccc(O)cc2Oc2cc(O)ccc21 [5-carboxy fluorescein]
